The results in this text go back to ChEMBL document CHEMBL3877316, “Synthesis of pharmacologically important naphthoquinones and anticancer activity of 2-benzyllawsone through DNA topoisomerase-II inhibition” (Bioorg Med Chem, 2017).

Bounds are passed on as bounds.

Experiment [1] in a line: Antiproliferative activity against human A549 cells after 48 hrs by SRB assay. As to conditions: A549, 48 h. The experiment is classed as functional, cell-based. On the technique in general: In SRB staining, fixed cells bind dye roughly in proportion to their protein.
In the next experiment the test system is FaDu. Kind of experiment: Inhibition of topoisomerase-2 in human FADU cells at 2 times antiproliferative IC50 after 24 hrs by ELISA relative to control. The experiment is classed as cell-based. In general terms: An ELISA detects its analyte on a solid surface through an enzyme-linked reagent.
Experiment [2] can be described thus: Antiproliferative activity against human MCF7 cells after 48 hrs by SRB assay. The experiment is classed as functional, cell-based. As to conditions: MCF7, 48 h.
Experiment [3] can be described thus: Antiproliferative activity against human FADU cells after 48 hrs by SRB assay. The experiment is classed as functional, cell-based.
The nature of experiment [4]: Antiproliferative activity against HEK293 cells after 48 hrs by SRB assay. As to conditions: Homo sapiens, HEK293, 48 h. The experiment is classed as cell-based.
The nature of experiment [5]: Antiproliferative activity against human DU145 cells after 48 hrs by SRB assay. The experiment is classed as functional, cell-based. As to conditions: DU-145, 48 h.
The nature of experiment [6]: Antiproliferative activity against human DLD1 cells after 48 hrs by SRB assay. As to conditions: DLD-1, 48 h. The experiment is classed as functional, cell-based.

Turning to `COc1cc([C@@H]2c3cc4c(cc3[C@@H](O[C@@H]3O[C@@H]5CO[C@@H](C)O[C@H]5[C@H](O)[C@H]3O)[C@H]3COC(=O)[C@H]23)OCO4)cc(OC)c1O` [ETOPOSIDE], the IC50 – broadly, the concentration at which inhibition is half-maximal – in experiment [1] is greater than 30 µM; in experiment [2], greater than 30 µM; in experiment [3], 16 µM; in experiment [4], 7.51 µM; in experiment [5] it was 10.6 µM; in experiment [6], 8.11 µM. Further, in the experiment on FaDu, the inhibition – broadly, the drop in the measured response relative to a control, in per cent – is 51.7%.
For the compound `CC1(C)CCC2=C(O1)c1ccccc1C(=O)C2=O` [LAPACHONE], the inhibition with FaDu came out at 53.9%. The same compound gave an IC50 in experiment [4] of 25.3 µM.
As for `COc1cc(COC2=CC(=O)c3ccccc3C2=O)cc(OC)c1OC`, the IC50 in experiment [1] was 18.9 µM; in experiment [2], greater than 30 µM; in experiment [3] it was 16.5 µM; in experiment [4], greater than 150 µM; in experiment [5] it was 25.2 µM; in experiment [6], greater than 30 µM. Moreover, the inhibition with FaDu turned out to be 14.7%.
For the compound `CCOC(=O)COC1=C(CC(=O)OCC)C(=O)c2ccccc2C1=O`, the IC50 in experiment [1] is 21.1 µM; in experiment [2], greater than 30 µM; in experiment [3], 21.8 µM; in experiment [4], greater than 150 µM; in experiment [5], greater than 30 µM; in experiment [6] it was greater than 30 µM. Moreover, the inhibition in the experiment on FaDu came to 21.4%.
In the case of `CCOC(=O)COC1=CC(=O)c2ccccc2C1=O`, the IC50 was 15.5 µM in experiment [1]; greater than 30 µM in experiment [2]; 19.7 µM in experiment [3]; greater than 150 µM in experiment [4]; greater than 30 µM in experiment [5]; greater than 30 µM in experiment [6]. This compound gave an inhibition in the experiment on FaDu of 16.8%.
